Measurements from ChEMBL document CHEMBL5038653, “A Brain-Penetrant and Bioavailable Pyrazolopiperazine BACE1 Inhibitor Elicits Sustained Reduction of Amyloid β In Vivo” (ACS Med Chem Lett, 2022).
In brackets after ≈: the same amount, converted by molar mass. Activity calls are given as the source filed them. No cut-off for these calls is given here.

Experiments:
[1] = molecular target: hERG (KCNH2) (Homo sapiens, UniProt Q12809); assay: Inhibition of hERG expressed in HEK293 cells at 3 uM at -80 mV holding potential by automated patch-clamp method; format: toxicity, cell-based; conditions: HEK293 cells expressing hERG
Chain of hERG (KCNH2) (Q12809 whole entry): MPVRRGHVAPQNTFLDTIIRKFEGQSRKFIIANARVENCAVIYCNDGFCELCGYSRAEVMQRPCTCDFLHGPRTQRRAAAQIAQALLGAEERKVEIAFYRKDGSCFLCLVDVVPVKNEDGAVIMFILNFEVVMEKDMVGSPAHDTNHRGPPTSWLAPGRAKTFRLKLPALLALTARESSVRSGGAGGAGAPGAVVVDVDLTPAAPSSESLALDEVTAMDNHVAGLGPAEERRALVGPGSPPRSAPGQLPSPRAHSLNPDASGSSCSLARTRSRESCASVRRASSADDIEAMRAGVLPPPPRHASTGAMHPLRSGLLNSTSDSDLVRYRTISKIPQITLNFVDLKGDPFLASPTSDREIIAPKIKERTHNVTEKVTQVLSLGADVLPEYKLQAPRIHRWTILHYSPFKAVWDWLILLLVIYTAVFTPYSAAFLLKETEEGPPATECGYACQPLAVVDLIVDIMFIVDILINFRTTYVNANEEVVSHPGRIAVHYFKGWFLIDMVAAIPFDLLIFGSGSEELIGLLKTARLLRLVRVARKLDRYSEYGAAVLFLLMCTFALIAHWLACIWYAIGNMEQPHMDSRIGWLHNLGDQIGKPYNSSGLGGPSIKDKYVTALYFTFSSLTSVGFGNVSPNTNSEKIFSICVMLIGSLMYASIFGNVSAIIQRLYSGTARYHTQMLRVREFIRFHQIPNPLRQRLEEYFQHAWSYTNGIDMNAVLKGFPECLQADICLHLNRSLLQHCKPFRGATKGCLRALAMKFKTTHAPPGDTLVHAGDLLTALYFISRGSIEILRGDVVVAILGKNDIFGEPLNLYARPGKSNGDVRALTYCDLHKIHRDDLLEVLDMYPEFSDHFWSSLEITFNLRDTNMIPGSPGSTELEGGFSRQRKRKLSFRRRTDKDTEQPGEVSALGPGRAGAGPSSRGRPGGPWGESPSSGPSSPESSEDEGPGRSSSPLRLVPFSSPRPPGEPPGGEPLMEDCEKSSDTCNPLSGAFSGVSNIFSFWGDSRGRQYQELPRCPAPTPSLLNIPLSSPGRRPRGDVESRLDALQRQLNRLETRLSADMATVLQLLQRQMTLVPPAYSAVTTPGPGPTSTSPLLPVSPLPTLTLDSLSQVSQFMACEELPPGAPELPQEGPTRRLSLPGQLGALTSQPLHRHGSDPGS

[2] = molecular target: Voltage-gated inwardly rectifying potassium channel KCNH2 (Homo sapiens, UniProt Q12809); assay: Inhibition of hERG expressed in HEK293 cells at -80 mV holding potential by automated patch-clamp method; format: toxicity, cell-based
Chain of Voltage-gated inwardly rectifying potassium channel KCNH2 (Q12809 whole entry, the tested form may be a part): as the sequence (Q12809 whole entry) above

[3] = molecular target: Beta-secretase 1 (Homo sapiens, UniProt P56817); assay: Inhibition of BACE1 (1 to 454 residues) (unknown origin) using APP harboring Swedish Lys/Met mutant-derived peptide as substrate by FRET assay
Chain of Beta-secretase 1 (P56817 whole entry, the tested form may be a part): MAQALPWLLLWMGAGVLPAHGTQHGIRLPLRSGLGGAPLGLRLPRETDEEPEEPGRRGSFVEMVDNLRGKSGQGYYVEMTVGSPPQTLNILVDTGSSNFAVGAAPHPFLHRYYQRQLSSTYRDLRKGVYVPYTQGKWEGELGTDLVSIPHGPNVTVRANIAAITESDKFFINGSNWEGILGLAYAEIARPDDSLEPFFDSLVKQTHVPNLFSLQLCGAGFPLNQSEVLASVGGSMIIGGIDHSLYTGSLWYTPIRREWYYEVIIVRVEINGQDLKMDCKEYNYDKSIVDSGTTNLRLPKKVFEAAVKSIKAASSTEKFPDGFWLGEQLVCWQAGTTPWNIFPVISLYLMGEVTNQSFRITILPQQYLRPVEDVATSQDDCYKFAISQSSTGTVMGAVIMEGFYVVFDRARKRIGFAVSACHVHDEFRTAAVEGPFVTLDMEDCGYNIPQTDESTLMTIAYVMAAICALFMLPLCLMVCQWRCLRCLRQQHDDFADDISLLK

[4] = system: MDR1; assay: Efflux ratio of apparent permeability in dog MDCK-MDR1 cells; format: ADME, cell-based, Canis lupus familiaris
[5] = molecular target: T1, Cytochrome P450 3A4 (Homo sapiens, UniProt P08684); assay: Inhibition of human CYP3A4 using midazolam as substrate by fluorescence plate reader analysis; format: ADME; conditions: for inhibition (INH): human
T1 sequence (P08684 whole entry): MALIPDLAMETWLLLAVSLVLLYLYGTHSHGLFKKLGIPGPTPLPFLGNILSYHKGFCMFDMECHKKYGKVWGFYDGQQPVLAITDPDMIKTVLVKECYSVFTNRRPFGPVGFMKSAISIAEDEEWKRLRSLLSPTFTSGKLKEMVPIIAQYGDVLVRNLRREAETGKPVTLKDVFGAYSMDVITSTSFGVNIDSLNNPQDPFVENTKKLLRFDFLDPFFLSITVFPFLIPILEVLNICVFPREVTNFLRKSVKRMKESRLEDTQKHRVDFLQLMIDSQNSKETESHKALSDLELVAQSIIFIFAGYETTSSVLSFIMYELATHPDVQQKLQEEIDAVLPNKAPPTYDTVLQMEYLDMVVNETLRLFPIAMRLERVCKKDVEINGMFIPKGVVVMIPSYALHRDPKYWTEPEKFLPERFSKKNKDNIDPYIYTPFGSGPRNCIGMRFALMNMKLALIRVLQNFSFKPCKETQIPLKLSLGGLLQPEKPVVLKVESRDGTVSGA

[6] = molecular target: T1, Cytochrome P450 3A4; assay: Inhibition of human CYP3A4 by fluorescence plate reader analysis; format: ADME
[7] = molecular target: Cytochrome P450 2C9 (Homo sapiens, UniProt P11712); assay: Inhibition of human CYP2C9 by fluorescence plate reader analysis; format: ADME
Chain of Cytochrome P450 2C9 (P11712 whole entry): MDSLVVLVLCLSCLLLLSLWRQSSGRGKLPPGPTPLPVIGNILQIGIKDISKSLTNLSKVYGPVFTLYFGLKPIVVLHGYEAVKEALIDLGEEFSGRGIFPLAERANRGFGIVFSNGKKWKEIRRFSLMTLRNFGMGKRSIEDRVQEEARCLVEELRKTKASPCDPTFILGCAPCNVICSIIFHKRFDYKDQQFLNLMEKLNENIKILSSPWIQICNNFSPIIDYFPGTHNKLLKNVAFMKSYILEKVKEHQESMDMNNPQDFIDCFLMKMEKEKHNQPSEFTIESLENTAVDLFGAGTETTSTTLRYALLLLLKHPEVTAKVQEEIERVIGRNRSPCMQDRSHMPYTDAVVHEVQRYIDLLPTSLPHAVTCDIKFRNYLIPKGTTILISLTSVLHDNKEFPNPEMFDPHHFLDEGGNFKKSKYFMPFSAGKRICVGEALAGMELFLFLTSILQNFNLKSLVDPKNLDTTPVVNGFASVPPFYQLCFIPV

[8] = Total plasma concentration in Beagle dog at 2.5 mg/kg, po; format: ADME, organism-based, Canis lupus familiaris; conditions: in vivo
[9] = Free drug concentration in dog plasma measured after 4.5 hrs by HPLC-MS/MS method; format: ADME, cell-free, Canis lupus familiaris
[10] = Free drug concentration in rat brain measured after 5 hrs by HPLC-MS/MS method; format: ADME, tissue-based
[11] = molecular target: Cytochrome P450 2C19 (Homo sapiens, UniProt P33261); assay: Inhibition of human CYP2C19 by fluorescence plate reader analysis; format: ADME
Chain of Cytochrome P450 2C19 (P33261 whole entry, the tested form may be a part): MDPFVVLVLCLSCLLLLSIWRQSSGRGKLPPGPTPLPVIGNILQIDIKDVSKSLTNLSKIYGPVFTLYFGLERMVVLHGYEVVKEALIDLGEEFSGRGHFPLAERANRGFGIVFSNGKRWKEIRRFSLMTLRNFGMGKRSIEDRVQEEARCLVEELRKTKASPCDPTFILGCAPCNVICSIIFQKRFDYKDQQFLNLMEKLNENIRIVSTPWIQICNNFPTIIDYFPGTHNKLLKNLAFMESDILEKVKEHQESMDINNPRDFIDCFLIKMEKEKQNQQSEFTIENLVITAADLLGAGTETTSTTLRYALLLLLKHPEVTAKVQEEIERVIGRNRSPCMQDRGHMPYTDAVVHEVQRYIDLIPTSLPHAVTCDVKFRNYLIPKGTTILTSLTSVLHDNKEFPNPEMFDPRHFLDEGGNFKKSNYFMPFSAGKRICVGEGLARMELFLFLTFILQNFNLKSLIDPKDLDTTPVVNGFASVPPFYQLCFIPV

[12] = system: Canis lupus familiaris; assay: In vivo inhibition of BACE1 in Beagle dog assessed as reduction of amyloid beta (1 to 42 residues) levels in CSF at 2.5 mg/kg, po measured after 24 hrs by electrochemiluminescence assay; format: functional, organism-based
[13] = molecular target: T2, Cytochrome P450 1A2 (Homo sapiens, UniProt P05177); assay: Inhibition of human CYP1A2 by fluorescence plate reader analysis; format: ADME
T2 sequence (P05177 whole entry): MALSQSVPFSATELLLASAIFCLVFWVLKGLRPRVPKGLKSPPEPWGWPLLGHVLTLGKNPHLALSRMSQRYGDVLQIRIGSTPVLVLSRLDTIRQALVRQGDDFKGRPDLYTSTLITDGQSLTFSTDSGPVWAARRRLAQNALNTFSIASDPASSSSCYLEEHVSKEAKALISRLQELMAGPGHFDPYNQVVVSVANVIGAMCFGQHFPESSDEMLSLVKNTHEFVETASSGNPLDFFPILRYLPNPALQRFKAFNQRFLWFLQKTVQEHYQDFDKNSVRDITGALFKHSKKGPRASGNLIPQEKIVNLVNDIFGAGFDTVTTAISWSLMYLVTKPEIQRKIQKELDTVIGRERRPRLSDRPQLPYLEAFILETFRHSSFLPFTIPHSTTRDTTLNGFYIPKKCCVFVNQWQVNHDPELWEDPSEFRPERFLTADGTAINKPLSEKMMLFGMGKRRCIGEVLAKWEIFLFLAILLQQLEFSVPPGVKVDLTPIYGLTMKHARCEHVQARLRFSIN

[14] = Ratio of apparent permeability across apical to basolateral side in the presence of P-gp inhibitor elacridar to the absence of P-gp inhibitor elacridar in dog MDCK-MDR1 cells at 5 uM incubated for 120 mins; format: ADME, cell-based, Canis lupus familiaris; conditions: 2 h
[15] = molecular target: T1, Cytochrome P450 3A4; assay: Time dependent inhibition of human CYP3A4 using testosterone as substrate by fluorescence plate reader analysis; format: ADME
[16] = In vivo inhibition of BACE1 in Beagle dog assessed as reduction of amyloid beta (1 to 42 residues) levels in CSF administered orally by electrochemiluminescence assay; format: functional, organism-based, Canis lupus familiaris; conditions: Canis lupus familiaris, Beagle
[17] = Free drug concentration in human plasma measured after 4.5 hrs by HPLC-MS/MS method; format: ADME, cell-free
[18] = molecular target: T1, Cytochrome P450 3A4; assay: Inhibition of human CYP3A4 using testosterone as substrate by fluorescence plate reader analysis; format: ADME
[19] = molecular target: T3, Cytochrome P450 2C8 (Homo sapiens, UniProt P10632); assay: Inhibition of human CYP2C8 by fluorescence plate reader analysis; format: ADME
T3 sequence (P10632 whole entry): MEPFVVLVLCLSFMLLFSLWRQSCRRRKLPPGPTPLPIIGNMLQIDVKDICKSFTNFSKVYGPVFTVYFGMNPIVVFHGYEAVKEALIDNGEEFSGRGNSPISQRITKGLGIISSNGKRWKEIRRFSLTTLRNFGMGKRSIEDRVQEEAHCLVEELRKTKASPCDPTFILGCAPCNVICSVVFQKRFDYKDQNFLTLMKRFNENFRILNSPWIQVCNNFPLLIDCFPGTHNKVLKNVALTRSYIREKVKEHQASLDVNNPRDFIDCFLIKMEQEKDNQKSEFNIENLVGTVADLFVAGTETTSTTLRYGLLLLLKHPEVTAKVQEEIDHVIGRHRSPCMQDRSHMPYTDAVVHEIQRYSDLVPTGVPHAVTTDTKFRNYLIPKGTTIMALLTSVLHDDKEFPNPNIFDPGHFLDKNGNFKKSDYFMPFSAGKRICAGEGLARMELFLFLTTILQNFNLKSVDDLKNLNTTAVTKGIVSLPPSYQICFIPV

[20] = Metabolic stability in mouse liver microsomes assessed as metabolite formation after 15 mins in presence of NADPH by LC-MS analysis; format: ADME, Microsome; conditions: 0.25 h
[21] = Dissociation constant, pKa of the compound by fast UV-spectrometric titration analysis; format: physicochemical
[22] = Half life in Beagle dog at 2.5 mg/kg, po; format: ADME, organism-based, Canis lupus familiaris; conditions: in vivo
[23] = Metabolic stability in human liver microsomes assessed as metabolite formation after 15 mins in presence of NADPH by LC-MS analysis; format: ADME, Microsome; conditions: 0.25 h
[24] = Free drug concentration in mouse plasma measured after 4.5 hrs by HPLC-MS/MS method; format: ADME, cell-free

IC50 [3] [nM] | efflux ratio [4] | IC50 [6] [µM] | Structure (SMILES) | IC50 [2] [µM] | other results
– | – | – | C[C@@]1(c2cc(NC(=O)c3ccc(C#N)cn3)ccc2F)Cn2ccnc2C(N)=N1 | – | inhibition at 3 µM [1]: 76%
1.4 | 7 | – | C[C@@]1(c2cc(NC(=O)c3ccc(OC(F)F)cn3)ccc2F)Cn2nc(C#N)cc2C(N)=N1 | 6.6 | –
11.5 | – | 4.4 | C[C@@]1(c2cc(NC(=O)c3ccc(F)cn3)ccc2F)Cn2c(C#N)cnc2C(N)=N1 | > 10 | inhibition (INH) [5]: Active
3.7 | 11.5 | – | C[C@@]1(c2cc(NC(=O)c3cnc(C(F)F)cn3)ccc2F)Cn2nc(C#N)cc2C(N)=N1 | > 10 | –
1.7 | 15.2 | – | C[C@@]1(c2cc(NC(=O)c3ccc(C#N)cn3)ccc2F)Cn2nc(C#N)cc2C(N)=N1 | 4.6 | inhibition at 3 µM [1]: 71%
5.5 | – | 3.1 | COc1cnc(C(=O)Nc2ccc(F)c([C@]3(C)Cn4c(C#N)cnc4C(N)=N3)c2)cn1 | > 10 | –
2.3 | 8.5 | – | C[C@@]1(c2cc(NC(=O)c3cnc(OCF)cn3)ccc2F)Cn2nc(C#N)cc2C(N)=N1 | > 10 | –
2.8 | 7 | – | C[C@@]1(c2cc(NC(=O)c3ccc(F)cn3)ccc2F)Cn2nc(C#N)cc2C(N)=N1 | 3.3 | –
13 | – | – | C[C@@]1(c2cc(NC(=O)c3ccc(C#N)cn3)ccc2F)Cn2cc(C#N)nc2C(N)=N1 | 6.6 | Ratio [14]: 16.8; Drug metabolism [20]: 95%; pKa [21]: 7; Drug metabolism [23]: 3%
– | – | – | CC(C)(C)OC(=O)Nc1ccc(F)c([C@]2(C)Cn3c(C#N)cnc3C(N)=N2)c1 | – | inhibition (INH) [5]: Active
2.6 | – | 0.9 | C[C@@]1(c2cc(NC(=O)c3ccc(Cl)cn3)ccc2F)Cn2c(C#N)cnc2C(N)=N1 | > 10 | inhibition (INH) [5]: Active
4.5 | 19.4 | – | Cc1nc(C(=O)Nc2ccc(F)c([C@]3(C)Cn4nc(C#N)cc4C(N)=N3)c2)co1 | > 10 | –

Structure (SMILES) | IC50 [3] [nM] | efflux ratio [4] | IC50 [6] [µM] | IC50 [2] [µM] | other results
C[C@@]1(c2cc(NC(=O)c3ccc(C#N)cn3)ccc2F)Cn2c(C#N)cnc2C(N)=N1 | 3.7 | – | 6.7 | > 10 | IC50 [7]: > 10 µM; concentration [8]: 72 nM; IC50 [5]: 6.7 µM; fraction unbound at 4.5 h [9]: 0.32; fraction unbound at 5 h [10]: 0.15; IC50 [11]: > 10 µM; inhibition [12]: inactive; IC50 [13]: > 10 µM; Ratio [14]: 9.3; IC50 [15]: 270 nM; EC50 [16]: 0.03 µg/mL (≈ 0.0724 µM); fraction unbound at 4.5 h [17]: 0.2; IC50 [18]: 1500 nM; IC50 [19]: > 10 µM; Drug metabolism [20]: 81%; pKa [21]: 7.2; half-life [22]: 480 min; Drug metabolism [23]: 34%; fraction unbound at 4.5 h [24]: 0.06
